Experimental findings from US9999624B2, “Combination Alzheimer therapy using anti-N3pGlu Abeta antibodies + a BACE inhibitor” (Eli Lilly and Company, priority 2014, dated 2018) are described below.

Structures can show the parent of a compound that is named as a salt. Where two headings read alike, the source gives them in different places.

The IC50 is the concentration needed to halve the response being measured.

For data set [1], the system named is young female PDAPP mice. Nature of the data set: In Vivo Inhibition of Beta-Secretase (brain Abeta 1-x reduction). The arrangement: species or system mouse. Particulars: for CNS penetration: inferred from brain Abeta lowering after oral dose; for Abeta 1-x peptide levels reduced in brain cortex / Abeta 1-x peptide levels reduced in brain hippocampus: 3 hours after administration, compared to vehicle-treated mice. The source says:
Several animal models, including mouse, guinea pig, dog, and monkey, may be used to screen for inhibition of beta-secretase activity in vivo following compound treatment Animals used in this invention can be wild type, transgenic, or gene knockout animals. For example, the PDAPP mouse model, prepared as described in Games et al., Nature 373, 523-527 (1995), and other non-transgenic or gene knockout animals are useful to analyze in vivo inhibition of Abeta and sAPPbeta production in the presence of inhibitory compounds. Generally, 2 to 12 month old PDAPP mice, gene knockout mice or non-transgenic animals are administered compound formulated in vehicles, such as corn oil, cyclodextran, phosphate buffers, […]®, or other suitable vehicles. One to twenty-four hours following the administration of compound, animals are sacrificed, and brains as well as cerebrospinal fluid and plasma are removed for analysis of Abetas, C99, and sAPP fragments. (See May, et al., Journal of Neuroscience, 31, 16507-16516 (2011)). For standard in vivo pharmacology studies, animals are dosed with various concentrations of compound and compared to a vehicle-treated control group dosed at the same time. For some time course studies, brain tissue, plasma, or cerebrospinal fluid is obtained from selected animals, beginning at time 0 to establish a baseline. Compound or appropriate vehicle is administered to other groups and sacrificed at various times after dosing. Brain tissue, plasma, or cerebrospinal fluid is obtained from selected animals and analyzed for the presence of APP cleavage products, including Abeta peptides, sAPPbeta, and other APP fragments, for example, by specific sandwich ELISA assays. At the end of the test period, animals are sacrificed and brain tissues, plasma, or cerebrospinal fluid are analyzed for the presence of Abeta peptides, C99, and sAPPbeta, as appropriate. Brain tissues of APP transgenic animals may also be analyzed for the amount of beta-amyloid plaques following compound treatment. “Abeta 1-x peptide” as used herein refers to the sum of Abeta species that begin with […]-terminus greater than residue 28. This detects the majority of Abeta species and is often called “total Abeta”.

The target of data set [2] is human BACE1(1-460):Fc (Homo sapiens (Human), UniProt P56817). Nature of the data set: BACE1 FRET Assay. Type of data set: biochemical. The conditions noted are these: purified recombinant huBACE1:Fc, FRET substrate, pH 4.6; Mean ± SEM.
human BACE1(1-460):Fc, sequence (P56817 22-460): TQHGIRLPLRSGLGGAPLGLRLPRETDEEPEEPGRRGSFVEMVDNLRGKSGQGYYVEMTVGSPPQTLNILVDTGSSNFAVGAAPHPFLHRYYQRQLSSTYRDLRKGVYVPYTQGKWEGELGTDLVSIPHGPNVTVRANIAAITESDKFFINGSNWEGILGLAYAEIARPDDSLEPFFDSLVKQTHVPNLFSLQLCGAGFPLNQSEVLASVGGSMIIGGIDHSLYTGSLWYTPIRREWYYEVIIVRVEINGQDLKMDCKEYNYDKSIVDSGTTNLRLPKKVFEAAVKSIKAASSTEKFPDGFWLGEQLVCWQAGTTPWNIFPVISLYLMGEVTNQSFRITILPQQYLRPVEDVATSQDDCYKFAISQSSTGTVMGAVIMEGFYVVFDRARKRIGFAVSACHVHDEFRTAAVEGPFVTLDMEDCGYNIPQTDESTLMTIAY
Data set [3] relates to primary cortical neurons from PDAPP transgenic embryonic mice. Kind of data set: PDAPP Primary Neuronal Assay (Abeta ELISA). The conditions noted are these: Mus musculus, Primary cortical neuron, 24 h, Mean ± SEM. Type of data set: cell-based. In general terms: An ELISA detects its analyte on a solid surface through an enzyme-linked reagent.

For `Cl.NC1=N[C@@]2(c3cccc(NC(=O)c4ccc(F)cn4)c3)CN(c3ncc(F)cn3)C[C@H]2CS1` [Example 1, N-{3-[(4aR,7aS)-2-Amino-6-(5-fluoropyrimidin-2-yl)-4a,5,6,7-tetrahydropyrrolo[3,4-d][1,3]thiazin-7a(4H)-yl]phenyl}-5-fluoropyridine-2-carboxamide hydrochloride], the CNS penetration entry in data set [1] was “demonstrate CNS penetration”. Further, the IC50 in data set [2] amounted to 0.61 nM.

Regarding `COc1cnc(C(=O)Nc2ccc(F)c([C@]34CN(c5ncc(F)cn5)C[C@H]3CSC(N)=N4)c2)cn1.Cl` [Example 4, N-[3-[(4aR,7aS)-2-Amino-6-(5-fluoropyrimidin-2-yl)-4,4a,5,7-tetrahydropyrrolo[3,4-d][1,3]thiazin-7a-yl]-4-fluoro-phenyl]-5-methoxy-pyrazine-2-carboxamide hydrochloride], the “Abeta 1-x peptide levels reduced in brain cortex” value in data set [1] (0.3 mg/kg oral dose) was “approximately 28%”; in data set [1] (1 mg/kg oral dose), ~42%; in data set [1] (3 mg/kg oral dose), ~64%. Besides, the figures for the “Abeta 1-x peptide levels reduced in brain hippocampus” value in data set [1] (0.3 mg/kg oral dose), in data set [1] (1 mg/kg oral dose) and in data set [1] (3 mg/kg oral dose) were “approximately 31%”, ~39% and ~61%, respectively. Moreover, the CNS penetration result in data set [1] is “demonstrate CNS penetration”.

Regarding `NC1=N[C@@]2(c3cccc(NC(=O)c4ncc(F)cc4F)c3)CN(c3ncc(F)cn3)C[C@H]2CS1` [Example 7, N-[3-[(4aR,7aS)-2-Amino-6-(5-fluoropyrimidin-2-yl)-4,4a,5,7-tetrahydropyrrolo[3,4-d][1,3]thiazin-7a-yl]phenyl]-3,5-difluoro-pyridine-2-carboxamide hydrochloride], in data set [2], the IC50 came to 0.739 nM.

`N#Cc1ccc(C(=O)Nc2ccc(F)c([C@]34CN(c5ncc(F)cn5)C[C@H]3CSC(N)=N4)c2)nc1` [Example 8, N-[3-[(4aR,7aS)-2-Amino-6-(5-fluoropyrimidin-2-yl)-4,4a,5,7-tetrahydropyrrolo[3,4-d][1,3]thiazin-7a-yl]-4-fluoro-phenyl]-5-cyano-pyridine-2-carboxamide hydrochloride]: the IC50 is 0.137 nM in data set [3] (Abeta 1-40 in conditioned media, read-out: PDAPP Neuron A-beta (1-40) ELISA IC50) and 0.0725 nM in data set [3] (Abeta 1-42 in conditioned media, read-out: PDAPP Neuron A-beta (1-42) ELISA IC50).
